Laboratory results as given in patent publication US20220325242A1, “IDH2 INHIBITION FOR PRODUCING T-CELLS AND B-CELLS WITH A MEMORY PHENOTYPE” (Universite de Lausanne, priority 2019, published 2022).

Key:
B16-OVA melanoma = assay: Tumor growth of B16-OVA tumors after adoptive transfer of inhibitor-treated OT1 T-cells; assay type: in vivo, mouse; conditions: mice adoptively transferred with T-cells treated in vitro
Description: Example 5. In vivo tumor model to characterize the phenotype and efficacy of cultured CD8+ T-cells upon adoptive cell transfer. An in vivo tumor model was used to determine the efficacy of in vitro cultured CD8+ T-cells treated with an IDH2 inhibitor in eliminating cancer cells (FIG. 10). B16-OVA melanoma cells (see Example 1) were cultured in DMEM (GIBCO) with 10% FCS and 1% P/S before their subcutaneous injection into the mouse flank. Each mouse received 100′000 cells in a volume of 200 μl of PBS. 6 days after B16-OVA cell injection, tumors were measured, mice were randomized and lymphodepleted by irradiation (5 Gray). 7 days after B16-Ova cell injection, mice were adoptively transferred with activated CD45.1^+ OT-1 splenocytes. […] Live splenocytes, almost exclusively consisting of CD8+ T-cells (about 98%), were counted with Trypan blue stain 0.4%. […]
Following the adoptive cell transfer (ACT), mice received a vaccination of CpG (50 μg/mouse) and N4 Ova peptide (10 μg/mouse) diluted in PBS to obtain a total volume of 100 μl/mouse, injected subcutaneously at the tail base to further stimulate the transferred cells. […] Tumors were measured every 2 days with a digital caliper and the tumor volume was calculated according to the formula: V=π×[d2×D]/6, wherein d is the smallest tumor axis and D is the largest tumor axis.

[1] = test system: human CD8+ T-cells from umbilical cord blood; assay: CD62L flow cytometry of human cord blood mononuclear cells (CBMC); assay type: cell-based
Description: Methods: Mononuclear Cells were isolated from fresh umbilical cord blood on a Percoll Gradient (CBMCs). 10^4 CBMC's were seeded per well in a round bottom 96-well plate in RPMI with 10% human serum, and activated with (magnetic) αCD3/CD28 at a 1:2 cell:bead ratio and 300 U/ml rhIL-2, in the presence of 5 μM AG221 or DMSO, or 1 μM MK2206 (AKT inhibitor). After 11 days of culture, CD62L expression was analyzed by flow cytometry on a fraction of the cells (FIG. 15A). The other cells were washed 2 times and placed in a magnet to remove the inhibitors and the αCD3/CD28 beads. The cells were then rested for 4 hours before restimulating them for 4 hours with 1 ng/ml Phorbol 12-Myristate 13-Acetate (PMA, a PKC activator) and 50 μg/ml Ionomycin (a Ca^2+ ionophore, activating NF-KB and NFAT) in the presence of 50 μ/ml golgi inhibitor (Brefeldin A, BFA), allowing for the measurement of intracellular accumulation of different cytokines by flow cytometry.

[2] = test system: human CD4 T cells (CD3-positive/CD8-negative); assay: CD62L expression in whole culture and in CD4 T cells, human culture (FIG. 16); assay type: cell-based
Excerpt: FIG. 16: Phenotypic analysis of human bulk PBMC at day 11 post in vitro activation. (A,B) Quantification of flow cytometry analysis at day 11 post-activation showing the percentage of CD62L+ CD8 T cells in the CD3/CD8 double positive T cell population (A) or in all living cells (B) from a culture of PBMCs treated with AKTi (MK2206), IDH2i (AG221) or DMSO control. (C,D) Quantification of flow cytometry analysis at day 11 post-activation showing the percentage of CD62L+ CD4 T cells in the CD3-positive/CD8-negative T cell population (C) or in all living cells (D). (E,F) Quantification of flow cytometry analysis at day 11 post-activation showing the percentage of CD8 T cells (E, identified as CD3/CD8 double positive) and CD4 T cells (F, identified as CD3-positive/CD8-negative) in all living cells of a culture of PBMCs treated with AKTi (MK2206), IDH2i (AG221) or DMSO control. *p<0.05, compared to DMSO Graphs show mean±SEM.
The previously obtained data has undergone additional analyses, in order to obtain more insight in CD62L expression in the whole culture as well as in CD4 T cells. In the human figure A and B, we now clearly made the distinction between CD62L expression as percentage out of CD8 T cells (FIG. 16A) or out of all living cells in the culture (FIG. 16 B).
As mentioned before, about 98% of the cells in culture on day 11 are CD3-positive. Since CD3 is exclusively expressed on CD4 and CD8 T cells, we can deduct that all CD3-positive, CD8-negative must be CD4 T cells. When analyzing the CD3-pos/CD8-neg population we observed that CD62L expression is induced upon AG221 treatment, both when expressed as percentage out of CD4 T cells (FIG. 16 C) and as percentage out of total living cells (FIG. 16 D). […] This can be explained by our observation that AKT inhibition favors CD8 T cell differentiation over CD4 T cell differentiation. This ratio remains unchanged upon AG221-treatment, as compared to DMSO control (FIG. 16 E and F).

OT2 CD4 T cells = assay: CD62L flow cytometry of OT2 CD4 T cells activated by co-culture with dendritic cells; assay type: cell-based, mouse; conditions: 5 μM for 7 days, day 7, versus DMSO
Excerpt: A new experiment has been performed on mouse T cells in order to further strengthen our claim that IDH2 inhibition also promotes memory marker expression in CD4 T cells. As indicated in the experimental scheme (FIG. 17A), we activated CD4 T cells from OT2 mice by co-culture with dendritic cells. OT2 mice are transgenic for an αβTCR recognizing specifically a chicken ovalbumine peptide 323-339 associated with the mouse MHC class II molecule I-A^b. We activated OT2 CD4 T cells by co-culture with dendritic cells loaded with […] of the ovalbumine peptide in the presence of 100 IU/ml recombinant human IL2 in the presence of 5 μM AG221 or DMSO control. After 4 days, cells were collected, washed and split, and brought back in culture with 100 IU/ml rhIL2 and 5 μM AG221 or DMSO control.

## CC(C)(O)CNc1nc(Nc2ccnc(C(F)(F)F)c2)nc(-c2cccc(C(F)(F)F)n2)n1 [AG221, 2-methyl-1-[[4-[6-(trifluoromethyl)pyridin-2-yl]-6-[[2-(trifluoromethyl)pyridin-4-yl]amino]-1,3,5-triazin-2-yl]amino]propan-2-ol]
B16-OVA melanoma
  tumor burden, in particular tumor growth: significantly reduced
[1]; day 11, 5 μM, versus DMSO
  CD62L expression in human CD8+ T-cells: strong upregulation
[1]; day 11, AG221 5 μM, MK2206 1 μM, DMSO control about 35%
  CD8+ cells expressing CD62L: about 75%
[2]; day 11, compared to DMSO control
  CD8 T cell versus CD4 T cell differentiation (ratio in all living cells): unchanged
[2]; day 11, versus DMSO
  CD62L expression in CD3-pos/CD8-neg population, as percentage out of CD4 T cells: induced
  CD62L+ CD4 T cells as percentage out of total living cells: induced
OT2 CD4 T cells
  CD62L-positive population of CD4 T cells: strong increase
